Assay results as given in patent publication US20220023278A1, “ANTI-AGING METHOD COMPRISING APPLYING JWA GENE” (Simcere Pharmaceutical Co., Ltd., priority 2019, published 2022).

Experiments:
JWA gene = experiment: JWA reporter gene assay (dual-luciferase) in HBE cells; format: cell-based, human; details: 24 hours treatment
Description: 2012 bp upstream of the JWA transcription start site (referred to “JWA promoter sequence” hereafter) was amplified by RT-PCR according to the human-derived JWA promoter sequence (FIG. 35), and inserted into a pGL3-Neo vector by using KpnI and NheI restriction enzyme sites, thereby yielding a recombinant vector (FIG. 36) containing the JWA promoter sequence. The recombinant vector was transferred into E. coli. (DH5a). Positive clones were sequenced to verify accuracy, thereby obtaining a neomycin-resistant reporter plasmid containing the JWA gene promoter. The plasmid and corresponding strains were stored at −70° C. for use.
Human bronchial epithelial (HBE) cells were cultured at a density of 3000 cells per well in a 384-well plate and allowed to adhere together. […]
After incubation, the 384-well plate was taken out, allowing the reagents and cells to equilibrate to room temperature of 18-22° C. […] The luciferase activity was analyzed by using a Dual-Luciferase Reporter Assay kit (Promega) and measured by a chemiluminescence analyzer (3010 C chemiluminescence analyzer). […]

JWA protein = experiment: Western blot of JWA protein expression in HBE cells; format: cell-based, human; details: 24 hours and 48 hours, 1, 10, and 100 μmol/L
Description: The HBE cells in the logarithmic growth phase were digested, plated at a density of 5×10^5/cell onto a 60 mm cell culture dish, and incubated in different doses of the compound JAC-4 for 24 hours or 48 hours, respectively. The cells were then treated with 0.18 mL of radio immunoprecipitation assay (RIPA, containing 0.5% PMSF) cell lysate for protein extraction, and centrifuged at 12,000×g for 15 minutes. The supernatant was collected and the protein concentration was measured. The proteins were heated and separated by electrophoresis through 12.5% polyacrylamide gel. 70 μg of the heated proteins was loaded into each well and separated by electrophoresis at 60 V for 30 minutes and 90 V for 1-1.5 hours. The proteins were then transferred from the gel to a PVDF membrane using a mini-genie transfer apparatus. The PVDF membrane was blocked with 5% skim milk, incubated at room temperature for 1-2 hours, and washed with TBST (containing 0.1% Tween 20). The washing step was repeated 3 times for 5 minutes each time. The blocked membrane was incubated overnight with primary antibody at 4° C., and then washed with TBS (containing 0.1% Tween 20). The washing step was repeated 3 times for 5 minutes each time. The blocked membrane was incubated at room temperature for 1-2 hours with secondary antibody, and then washed with TBST (containing 0.1% Tween 20). […]

[1] = HPLC analysis of compound in processed, Co60-sterilized test feed; format: physicochemical; details: pelleted feed, Co60 irradiation
Description: The compound JAC-4 (purity>99%) was mixed with an equal amount of standard mouse feed. Specifically, 1 g of compound JAC-4 was thoroughly mixed with 1 g of basic feed materials; 2 g of the mixture was thoroughly mixed with 2 g of basic feed materials; 4 g of the mixture was thoroughly mixed with 4 g of basic feed materials, and so on, thereby obtaining two test feeds respectively containing 1 g/kg and 2 g/kg of the compound JAC-4. According to the standard operating procedures for feed, the test feeds were processed into pellets, vacuum packaged, and sterilized by a Co60 source irradiation. The feed processing was entrusted to a professional company. To verify that the compound JAC-4 was evenly distributed in the mixed feeds and not damaged in the structure during processing, the sterilized feeds were randomly sampled and fully extracted with organic solvents. The content of the compound JAC-4 was then measured by High Performance Liquid Chromatography and it was confirmed that the compound JAC-4 was not damaged and the content thereof met the requirements (FIGS. 38-40).

12-month-old mice = experiment: Feeding 12-month-old mice with test feed containing 1 g/kg JAC-4; format: in vivo
Description: 12-month-old mice were housed in specific pathogen free (SPF) conditions at an ambient temperature of 22±2° C. and a relative humidity of 40%-60%, in day/night cycles of 12 h/12 h simulated by lighting. Mice were fed with sterile acidified water, common feeds (without compound JAC-4) or test feeds (with compound JAC-4).
In general, the daily feed consumption of each mouse is about 10% of its body weight. Therefore, when the mice consume 1 g/kg of JAC-4 experimental feed, it is equivalent to the daily intake of 100 mg/kg of JAC-4. The mice were weighed every two weeks from the start of feeding and scored on the aging appearance every two weeks from the sixth week. The higher the score, the more obvious the aging appearance. The mice were photographed monthly and changes in appearance were recorded. In all the experiments attention was paid to ethical guidelines for the investigation of experimental pain in conscious animals.

[2] = system: naturally aging mice (24 months old); experiment: Feeding naturally aging 24-month-old mice with test feed containing 2 g/kg JAC-4; format: in vivo; details: test feed 2 g/kg, 10 weeks
Description: Feeding 24-month-old mice with the test feed containing 2 g/kg of the compound JAC-4 (equivalent to 200 mg JAC-4/kg body weight).
Mice were housed in the same conditions as Example 12. After feeding for 10 weeks, the mice were anesthetized. The whole blood was collected, allowed to stand for 30 min at room temperature, and centrifuged at 3000 rpm for 15 min. The supernatant, i.e., serum, was collected and analyzed by Hitachi 7100 automatic biochemical analyzer. Liver, spleen and kidney tissues of the mice were isolated on ice, fixed with 4% paraformaldehyde, or frozen at −80° C. The fixed tissues were processed into a paraffin section or frozen section with a thickness of 5 μm, stained with HE to visualize the morphological and pathological changes in the liver, spleen and kidney. The liver section was stained with oil red O for fat deposition and stained with periodic acid-Schiff (PAS) for glycogen. Total protein was extracted from the liver and spleen frozen at −80° C., and cell membrane proteins were extracted from the liver frozen at −80° C. Western blot was performed to detect the expression of JWA protein in liver and spleen tissues, the expression of p-AKT, AKT, p-GSK3β and GSK3β proteins in liver tissues, and the expression of glucose transporter (Glut 2) in cell membrane proteins of liver tissues. A biochemical kit (purchased from Nanjing Jiancheng Bioengineering Institute, Nanjing, China) was used to detect the activities of Superoxide dismutase (SOD), as well as the main rate-limiting enzymes of glucose and lipid metabolism in liver tissues. In all the experiments attention was paid to ethical guidelines for the investigation of experimental pain in conscious animals.

[3] = test feed 1 g/kg vs common feed

SMILES: c1ccc(CSc2nnc(C3COc4ccccc4O3)o2)nc1 (centres unmarked) [JAC-4]
- activation of JWA gene expression (luciferase reporter) (JWA gene): sharp dose-effect relationship
- expression level of JWA protein (JWA protein): enhanced
- integrity of compound in feed after processing and sterilization [1]: not damaged
- body weight (12-month-old mice; 22nd week, test feed 1 g/kg (100 mg/kg daily) vs common feed): no statistical difference
- hair loss (12-month-old mice; [3]): significant decrease
- score of aging appearance (12-month-old mice; [3]): significant decrease
- SOD in the liver [2]: increase
- SOD in the serum [2]: increase
- glycogen synthase in the liver [2]: increased
- rate-limiting enzyme related to glucose decomposition in the liver [2]: increased
- serum glucose [2]: significantly reduced
- serum triglycerides [2]: significantly reduced
- age-related inflammatory cell infiltration around the central vein of the liver ([2]; HE staining): significantly reduced
- morphology of liver, kidney and spleen ([2]; HE staining): did not produce observable abnormal changes
- glycogen synthesis in the liver ([2]; PAS staining): increased
- AKT phosphorylation in liver ([2]; Western blot): activated
- GSK3β in liver ([2]; Western blot): inhibited
- Glut 2 expression in liver cell membranes ([2]; Western blot): increased
- expression of JWA protein in liver tissue ([2]; Western blot): increased significantly
- expression of JWA protein in spleen tissue ([2]; Western blot): increased significantly
